From US20230102192A1, “THERAPIES FOR THE TREATMENT OF DISEASES AND DISORDERS ASSOCIATED WITH ABNORMAL EXPRESSION OF A NEURAL-ASSOCIATED GENE” (The Regents of the University of California, priority 2020, published 2023)

Assays:
[1] = large Carbamoylcholine metabolite; cited from earlier work
[2] = tested on: MECP2-KO neurons; experiment: Co-localized pre/postsynaptic puncta quantification in neurons; format: cell-based, human; settings: one-month old MECP2-KO neurons treated two weeks
Experimental: (§1) Pharmacologic treatment. One-month old cortical organoids were treated for 1 mo with either Nefiracetam (10 μM) or PHA 543613 (10 μM) during media changes.
Synaptic puncta quantification. Co-localized pre and postsynaptic puncta (Vglut and Homer1 immunostained) along MAP2-positive processes were quantified. Primary antibodies (see above) incubated 2 h, secondary antibodies incubated 1 h, and coverslips were mounted. Slides were analyzed under fluorescence microscopy.
Pharmacologic screening identifies two compounds that specifically reverse MECP2-KO phenotypes. 14 commercially available pharmacologic compounds with mechanisms of action that counteract the synapse and neurotransmitter pathologies were selected and which are identified in FIG. 5B. […] MECP2-KO and control neurons were treated with each of the 14 compounds and employed a tiered series of assays to identify those that could selectively rescue MECP2-KO pathology without affecting controls. […] The capacity of these compounds to increase pre and post co-localized synaptic puncta in MECP2-KO neurons were evaluated, again eliminating the drugs that affected control neurons (see FIG. 5F-G, and FIG. 6C-D).

[3] = tested on: MECP2-KO neurons; experiment: Calcium imaging of neurons; format: cell-based, human; settings: vs untreated KO
Experimental: as §1
Calcium imaging. Calcium imaging was performed as described in Chailangkarn et al. Briefly, PSC-derived neuronal networks were lentivirally transduced with a Syn::RFP reporter construct. Cultures were washed with Krebs HEPES buffer and incubated with Fluo-4AM (Molecular Probes/Invitrogen, Carlsbad, Calif., USA). A Hamamatsu ORCA-ER digital camera (Hamamatsu Photonics, Japan) with 488 nm filter on an Olympus IX81 inverted fluorescence confocal microscope (Olympus Optical, Tokyo, Japan) acquired 5000 frames at 28 Hz in a 256×256 pixel region (100× magnification). Images were acquired with MetaMorph7.7 (MDS Analytical Technologies, Sunnyvale, Calif., USA) and analyzed with ImageJ and Matlab7.2 (Mathworks, Natick, Mass., USA). Syn::RFP+ neurons were selected following tetrodotoxin blockade of calcium transients. A 95th-percentile threshold of amplitude for calcium spikes was set for event detection; signal amplitude is presented as fluorescence change (ΔF/F) following background subtraction.

Compound	gastrointestinal absorption [1]	traversal of the blood-brain barrier [1]	synaptogenesis / co-localized synaptic puncta [2]	frequency of calcium oscillations [3]	percentage of active neurons [3]
C[N+](C)(C)CCOC(N)=O [Carbamoylcholine]	limited gastrointestinal absorption	cannot traverse the blood-brain barrier			
CC(=O)NCCCS(=O)(=O)O [Acamprosate]			specifically increased synaptogenesis	increases	increases
